{"source": "patent US7090853B2", "about": "“Noscapine derivatives as adjuvant compositions and methods of use thereof” (Emory University, priority 1999, dated 2006)", "key": {"bovine brain tubulin": {"target": "bovine brain tubulin (Bos taurus, UniProt P81947+Q6B856)", "sequence (P81947 whole entry)": "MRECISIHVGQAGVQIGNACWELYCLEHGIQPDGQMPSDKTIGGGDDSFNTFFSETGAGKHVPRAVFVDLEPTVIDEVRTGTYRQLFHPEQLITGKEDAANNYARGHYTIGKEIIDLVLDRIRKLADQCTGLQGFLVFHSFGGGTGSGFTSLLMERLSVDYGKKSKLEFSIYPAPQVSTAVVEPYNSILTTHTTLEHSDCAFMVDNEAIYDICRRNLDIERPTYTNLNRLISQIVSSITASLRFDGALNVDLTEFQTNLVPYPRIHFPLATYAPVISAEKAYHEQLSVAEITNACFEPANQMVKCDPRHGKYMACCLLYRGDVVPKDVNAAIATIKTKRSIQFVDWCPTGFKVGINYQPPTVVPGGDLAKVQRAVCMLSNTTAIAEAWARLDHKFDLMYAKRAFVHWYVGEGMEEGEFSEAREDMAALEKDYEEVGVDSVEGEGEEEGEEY", "sequence (Q6B856 whole entry)": "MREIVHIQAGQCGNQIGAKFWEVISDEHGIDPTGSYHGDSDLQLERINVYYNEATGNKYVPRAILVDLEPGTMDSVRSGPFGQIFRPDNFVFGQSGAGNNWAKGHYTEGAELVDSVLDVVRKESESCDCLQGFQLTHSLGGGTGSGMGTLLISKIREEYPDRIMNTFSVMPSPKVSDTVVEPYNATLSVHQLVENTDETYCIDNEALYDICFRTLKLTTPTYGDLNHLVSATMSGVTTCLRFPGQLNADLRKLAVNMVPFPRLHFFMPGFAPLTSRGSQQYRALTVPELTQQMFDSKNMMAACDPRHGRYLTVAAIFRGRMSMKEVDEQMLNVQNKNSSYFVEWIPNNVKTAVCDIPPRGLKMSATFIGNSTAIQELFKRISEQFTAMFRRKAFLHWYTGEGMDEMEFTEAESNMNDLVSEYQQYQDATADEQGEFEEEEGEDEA", "experiment": "Fluorescence titration of tubulin binding (Scatchard plot)", "method": "Phosphocellulose purified bovine brain tubulin was employed throughout these biophysical experiments. Fluorescence titration for determining binding constants was performed according to Peyrot, V. et al., Biochemistry 31, 11125 (1992). […], at room temperature, 2 μM tubulin in 100 mM PIPES, 2 mM EGTA, 1 mM MgCl2 was excited at 278 nm, and the fluorescence emission spectra were recorded with bandwidths […]. The fluorescence emission intensity of noscapine at this excitation wavelength was negligible and at the concentration of noscapine used it gave no appreciable inner filter effect. The concentration of noscapine was raised in increments of 0.5 μM, until the decrease in the fluorescence intensity was saturated. The value of the dissociation constant and the number of sites were obtained from Scatchard plots using the equation, r/[L]free=n/K^d−r/Kd, where r is the ratio of the concentration of bound ligand to the total protein concentration and n is the number of binding sites. […] Microtubule assembly was recorded on a spectrophotometer with thermocontroler, The cuvettes (0.4 cm path) containing 100 mM PIPES, 2 mM EGTA, 1 mM MgCl2 and 1 mM GTP (G-PEM buffer), and 20 μM noscapine/DMSO were kept at room temperature before addition of tubulin and shifting to 37° C. […] The assembly was monitored by measuring the changes in turbidity at […]. intervals. […]"}, "E.G7-OVA cells": {"test_system": "E.G7-OVA cells", "experiment": "Inhibition of E.G7-OVA tumor growth, i.p. or i.g. dosing", "format": "in vivo, C57BL/6 mice", "method": "C57BL/6 mice were injected subcutaneously in the right flank with 2×10^6 E.G7-OVA cells. Three days later, mice were injected intraperitoneally, every day for three weeks, either with 200 μl saline (n=10), or with 3 mg noscapine dissolved in 200 μl saline (n=10). Third group of mice (n=10) was fed 3 mg noscapine via intragastric (i.g.) intubation using a 1 ml syringe fitted with a 20 gauge stainless steel ball point needle. After three weeks, all mice were sacrificed by cervical dislocation. Tumors were removed and weighed. Tumor weights were individually plotted and comparisons between control and treatment groups were analyzed by the Student's t test."}}, "data": [{"molecule": "COc1ccc2c(c1OC)C(=O)O[C@@H]2[C@H]1c2c(cc3c(c2OC)OCO3)CCN1C", "note": "[Noscapine]", "values": [{"measurement": "stoichiometry", "setting": "bovine brain tubulin; Scatchard plot", "value": "0.95±0.02 noscapine molecule per complex of tubulin subunit"}, {"measurement": "quenching of tubulin fluorescence", "setting": "bovine brain tubulin; excitation 278 nm", "value": "fluorescence quenching of tubulin"}, {"measurement": "tumor weight", "setting": "E.G7-OVA cells; 3 mg noscapine i.p. or i.g. every day for three weeks, vs saline", "value": "significantly reduced tumor weight"}, {"measurement": "tumor cell growth and apoptosis of E.G7-OVA in vivo", "setting": "E.G7-OVA cells; given parenterally or by gastric gavage", "value": "arrested tumor cell growth and induced apoptosis"}]}]}
